Data taken from ChEMBL document CHEMBL1201862, “PubChem BioAssay data set” (2004).
Activity calls are given as the source filed them.

Experiments:
[1] = target: T1, Cytochrome P450 1A2 (Homo sapiens, UniProt P05177);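 further: PubChem cytochrome P450 panel assay, CYP1A2 panel member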
T1 sequence (P05177 whole entry): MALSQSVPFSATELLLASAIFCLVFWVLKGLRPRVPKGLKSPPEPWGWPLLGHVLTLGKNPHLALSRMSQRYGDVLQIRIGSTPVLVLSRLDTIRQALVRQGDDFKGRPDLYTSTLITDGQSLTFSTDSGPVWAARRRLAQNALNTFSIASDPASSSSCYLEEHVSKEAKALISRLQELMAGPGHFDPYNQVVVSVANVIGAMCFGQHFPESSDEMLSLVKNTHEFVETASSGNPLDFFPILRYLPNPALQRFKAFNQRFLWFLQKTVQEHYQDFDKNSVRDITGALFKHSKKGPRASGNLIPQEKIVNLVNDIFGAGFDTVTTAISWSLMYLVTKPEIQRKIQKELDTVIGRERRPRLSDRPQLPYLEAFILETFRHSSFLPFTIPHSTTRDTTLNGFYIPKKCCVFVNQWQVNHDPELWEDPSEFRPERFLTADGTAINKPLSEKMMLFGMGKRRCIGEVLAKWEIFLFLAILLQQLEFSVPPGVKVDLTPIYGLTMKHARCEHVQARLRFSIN

[2] = target: Cytochrome P450 2D6 (Homo sapiens, UniProt P10635);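 further: CYP2D6 member of a cytochrome P450 panel assay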
Cytochrome P450 2D6, sequence (P10635 whole entry): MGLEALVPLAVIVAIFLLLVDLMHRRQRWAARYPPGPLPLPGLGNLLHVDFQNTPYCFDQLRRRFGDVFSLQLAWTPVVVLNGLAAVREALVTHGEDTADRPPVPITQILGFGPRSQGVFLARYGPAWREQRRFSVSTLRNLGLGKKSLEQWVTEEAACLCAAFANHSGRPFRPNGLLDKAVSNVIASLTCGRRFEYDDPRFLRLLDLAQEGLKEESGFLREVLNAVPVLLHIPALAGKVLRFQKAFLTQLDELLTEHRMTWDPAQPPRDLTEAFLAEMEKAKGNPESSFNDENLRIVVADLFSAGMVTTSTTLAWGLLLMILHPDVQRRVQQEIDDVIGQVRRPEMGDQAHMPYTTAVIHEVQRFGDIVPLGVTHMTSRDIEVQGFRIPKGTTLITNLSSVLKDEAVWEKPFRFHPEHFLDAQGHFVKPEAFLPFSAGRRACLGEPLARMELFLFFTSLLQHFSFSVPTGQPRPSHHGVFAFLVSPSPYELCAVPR

[3] = test system: Streptococcus; assay: GAS UMAA2166 growth inhibition – luminescence, BacTiterGlo, counter-screen for streptokinase expression inhibitor project, dose response (AID 1915); type: functional, organism-based;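 further: potency for reduction of bacterial viability or growth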
[4] = test system: Streptococcus sp. 'group A'; assay: Streptococcus pyogenes SK(-)GAS viability under kanamycin – luminescence, BacTiterGlo, confirmation, counter-screen for streptokinase expression inhibitor project, dose response (AID 1900); type: functional, organism-based
[5] = target: T2, Streptokinase A (Streptococcus pyogenes serotype M1, UniProt P10520); assay: viability-normalized secreted streptokinase activity reduction – plasminogen activation absorbance, OD405, dose response (AID 1914); type: functional, Streptococcus pyogenes M1 GAS;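 further: secreted streptokinase activity via plasminogen activation per viability signal from cell pellet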
T2 sequence (P10520 whole entry): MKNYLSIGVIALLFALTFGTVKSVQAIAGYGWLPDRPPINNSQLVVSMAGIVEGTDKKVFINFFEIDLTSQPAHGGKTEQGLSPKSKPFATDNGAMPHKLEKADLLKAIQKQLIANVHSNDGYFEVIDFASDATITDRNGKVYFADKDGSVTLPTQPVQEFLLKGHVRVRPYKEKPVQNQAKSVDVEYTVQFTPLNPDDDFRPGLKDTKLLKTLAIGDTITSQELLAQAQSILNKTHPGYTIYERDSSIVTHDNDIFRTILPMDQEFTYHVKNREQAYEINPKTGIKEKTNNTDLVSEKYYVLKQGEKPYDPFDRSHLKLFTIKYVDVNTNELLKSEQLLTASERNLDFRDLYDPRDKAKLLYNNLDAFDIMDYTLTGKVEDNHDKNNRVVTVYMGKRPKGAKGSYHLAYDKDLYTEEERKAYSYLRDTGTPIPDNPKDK

[6] = viability of uninfected HEp-2 cells – cell-based, HTS, cytotoxicity control for RSV inhibitor project, dose response (AID 2410); type: functional; settings: human respiratory syncytial virus
[7] = Luminescence Cell-Based Dose Retest to Confirm Inhibitors of Cancer Stem Cells. [Related pubchem assays (depositor defined):AID2717, AID2721]; type: functional; settings: Homo sapiens
[8] = non-specific 3'UTR reporter inhibition in Clone20-Shn3RL – cell-based, Renilla luciferase, cherry-picked, counter-screen for Shn3 inhibitor project, dose response (AID 624133); type: functional
[9] = test system: H4; assay: Luminescence Cell-Based Dose Response HTS to Identify Activators of 5'UTR Stem-Loop Driven Prion Protein mRNA Translation in H4 Neuroglioblastoma Cells. [Related pubchem assays: 1829 (Project Summary), 1814 (Primary HTS)]; type: functional; settings: Homo sapiens
[10] = Luminescence Cell-Based Dose Response HTS to Identify Activators of Luciferase Translation or Activity in H4 […] Cells. [Related pubchem assays: 1829 (Project Summary), 1814 (Primary HTS)]; type: functional
[11] = target: T3, Corticotropin-releasing factor receptor 2/Corticotropin-releasing factor-binding protein (Homo sapiens, UniProt P24387+Q13324); assay: activators of CRF receptor 2 with binding protein – uHTS hits, confirmation (AID 602473); type: functional; settings: read-out: EC50_Mean
T3 sequence (Q13324 whole entry): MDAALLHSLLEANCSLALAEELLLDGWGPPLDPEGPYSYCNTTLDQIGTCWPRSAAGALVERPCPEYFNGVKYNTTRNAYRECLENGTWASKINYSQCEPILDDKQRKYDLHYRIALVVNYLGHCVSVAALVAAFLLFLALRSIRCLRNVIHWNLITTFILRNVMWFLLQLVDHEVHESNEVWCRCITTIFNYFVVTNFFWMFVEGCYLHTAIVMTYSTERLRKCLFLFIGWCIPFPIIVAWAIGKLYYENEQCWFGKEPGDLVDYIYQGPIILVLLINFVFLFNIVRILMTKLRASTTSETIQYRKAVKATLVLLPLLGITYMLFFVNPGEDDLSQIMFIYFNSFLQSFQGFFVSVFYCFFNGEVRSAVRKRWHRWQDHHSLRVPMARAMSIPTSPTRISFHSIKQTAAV
T3 sequence (P24387 whole entry): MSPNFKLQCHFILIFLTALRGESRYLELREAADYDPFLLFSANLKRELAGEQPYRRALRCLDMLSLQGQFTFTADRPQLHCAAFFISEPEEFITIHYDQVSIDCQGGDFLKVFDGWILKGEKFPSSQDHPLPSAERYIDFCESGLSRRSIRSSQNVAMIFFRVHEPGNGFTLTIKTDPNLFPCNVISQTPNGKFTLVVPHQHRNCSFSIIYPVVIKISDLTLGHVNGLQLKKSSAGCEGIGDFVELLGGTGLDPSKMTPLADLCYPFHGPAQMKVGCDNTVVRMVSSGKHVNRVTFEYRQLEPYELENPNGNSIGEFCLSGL

[12] = target: Cytochrome P450 2C19 (Homo sapiens, UniProt P33261); assay: Cytochrome panel assay with activity outcomes. Panel member name: p450-cyp2c19 Compounds with AC50 equal or less than 10 uM are considered active; type: functional; settings: read-out: AC50
Cytochrome P450 2C19, sequence (P33261 whole entry): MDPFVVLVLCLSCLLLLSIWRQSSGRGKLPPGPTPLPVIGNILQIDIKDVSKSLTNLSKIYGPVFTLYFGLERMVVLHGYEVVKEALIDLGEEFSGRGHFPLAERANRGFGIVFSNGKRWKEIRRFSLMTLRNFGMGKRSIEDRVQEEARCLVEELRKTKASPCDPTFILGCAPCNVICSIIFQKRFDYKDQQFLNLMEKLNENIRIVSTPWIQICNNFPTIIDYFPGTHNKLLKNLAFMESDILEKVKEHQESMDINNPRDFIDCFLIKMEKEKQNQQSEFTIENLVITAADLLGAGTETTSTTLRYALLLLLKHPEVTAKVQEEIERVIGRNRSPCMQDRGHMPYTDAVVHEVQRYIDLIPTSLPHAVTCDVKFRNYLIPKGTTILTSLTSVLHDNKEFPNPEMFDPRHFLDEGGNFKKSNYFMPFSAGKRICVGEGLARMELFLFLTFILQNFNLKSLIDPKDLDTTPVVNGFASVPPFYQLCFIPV

Cc1ccc(Cn2nnc3c(O)nc(C4CCN(C(=O)Cc5cccs5)CC4)nc32)cc1
AC50 [1]: 31.6 µM (inconclusive)
AC50 [2]: 17.8 µM (inconclusive)

COc1cc(OC)cc(C(=O)Nc2nc3ccccc3[nH]2)c1
EC50 [3]: > 150 µM (not active)
EC50 [4]: 7.14 µM (active)
EC50 [5]: > 150 µM (not active)

C(=N\Nc1nc(N2CCCCCC2)nc(N2CCCCCC2)n1)/c1ccccc1
CC50 [6]: 28.4 µM (active)

CCC(C)Sc1cccc(-c2nc3cc(C)ccn3c2NCc2ccccc2)c1 (stereo not given)
AC50 [7]: 5.14 µM (active)

O=CNn1cnc2c(oc3nc(-c4ccccc4)cc(-c4ccco4)c32)c1=O
CC50 [6]: 9.82 µM (active)

Cc1ccccc1OCC(=O)Nc1ccccc1N1CCC(C)CC1
EC50 [3]: 11.1 µM (active)
EC50 [4]: 6.64 µM (active)
EC50 [5]: 45 µM (active)

COc1ccc(-c2nc(N)nc(C)c2Oc2ccccc2Br)c(O)c1
AC50 [7]: 1.96 µM (active)

COc1c(C)cc(C(=O)C2CCCN(C(=O)c3cccc(-n4cccn4)c3)C2)cc1C (stereo not given)
AC50 [8]: > 70 µM (inactive)

CN(C)Cc1ccccc1-c1cc(NCc2ccccc2)ncn1
AC50 [2]: 15.8 µM (inconclusive)

COc1ccc2[nH]cc(CCNc3ncnc4ccc(-c5cccc(C#N)c5)cc34)c2c1
AC50 [2]: 3.16 µM (inconclusive)

CC(=O)c1cccc(NC(=O)C(=O)Nc2cccc3ccccc23)c1
EC50 [9]: 10.7 µM (active)
EC50 [10]: 13.3 µM (active)

Cc1ccc2c[nH]nc2c1[N+](=O)[O-]
CC50 [6]: 42.8 µM (active)

O=C(Nc1ccc(OC(F)(F)F)cc1)C1CCCN(S(=O)(=O)c2c[nH]cn2)C1 (stereo not given)
EC50 [3]: > 150 µM (not active)
EC50 [4]: > 150 µM (not active)
EC50 [5]: > 150 µM (not active)

O=C1NC(=O)/C(=C/c2c[nH]c3ccc(Br)cc23)N1
CC50 [6]: 24.8 µM (active)

Clc1ccccc1CN(Cc1ccccc1)c1ncnc2nc[nH]c12
EC50 [5]: > 150 µM (not active)

O=[N+]([O-])c1ccc(-c2ccc(/C=N/Nc3nc(N4CCCCC4)nc(N4CCCCC4)n3)o2)cc1
EC50 [11]: 5.96 µM (active)

O=c1c(-c2ccccc2)coc2cc(O)ccc12 [7-HYDROXY ISOFLAVONE]
CC50 [6]: 46.3 µM (active)

CCOc1cc(/C=N/O)cc(Br)c1OCc1ccc(Cl)cc1
AC50 [7]: 3.77 µM (active)

O=C1C=C(c2cc(C(F)(F)F)cc(C(F)(F)F)c2)C[C@@H](c2ccc(Cl)cc2)C1
CC50 [6]: 17.3 µM (active)

CCOC(=O)c1ccc(COC(=O)c2ccc3c(c2)-c2ccccc2C3=O)cc1
CC50 [6]: 20.8 µM (active)

c1ccc(CCNc2nc(-c3ccccn3)cs2)cc1
EC50 [3]: 14.2 µM (active)
EC50 [4]: 7.29 µM (active)
EC50 [5]: > 150 µM (not active)

CC(=O)Nc1ccc(C2CC(c3ccc(Cl)cc3)=NN2c2ccccc2)cc1 (stereo not given)
AC50 [7]: 1.64 µM (active)
CC50 [6]: 47.5 µM (active)

O=C(Nc1ccccc1)N1CCC2(CCNCC2)CC1
AC50 [2]: 25.1 µM (inconclusive)

COc1ccc(C(=O)NC2CCCCCC2)cc1S(=O)(=O)N1CCOCC1
EC50 [3]: > 150 µM (not active)
EC50 [4]: > 150 µM (not active)
EC50 [5]: > 150 µM (not active)

O=C(Nc1ccc(-c2cn3ccsc3n2)cc1)C1CC1
EC50 [9]: 4.21 µM (active)
EC50 [10]: 0.487 µM (active)

CC(C)c1nc(N2CCCC2)c(C#N)c2c1CCCC2
EC50 [3]: 7.01 µM (active)
EC50 [4]: 4.2 µM (active)
EC50 [5]: > 150 µM (not active)

N=C(N)S[C@H]1c2ccccc2-c2cc([N+](=O)[O-])ccc21
AC50 [12]: 0.631 µM (inconclusive)
AC50 [2]: 2.51 µM (inconclusive)

CC(=O)Nc1ccc(-c2csc(NC(=O)Cc3ccccc3F)n2)cc1
AC50 [7]: 9.04 µM (active)

CC(C)S(=O)(=O)c1csc(NC(=O)Nc2ccc(Cl)cc2)c1Cl
EC50 [3]: > 150 µM (not active)
EC50 [4]: 12.1 µM (active)
EC50 [5]: 74.3 µM (active)

CCC(C)c1ccc(C(C)N=C(S)NC2CCCCC2)cc1 (stereo not given)
EC50 [3]: 18.1 µM (active)
EC50 [4]: 8.05 µM (active)
EC50 [5]: 146 µM (active)

Oc1cccc(Nc2nc(O)c(/C=C3\C=Nc4ccccc43)s2)c1
CC50 [6]: 15.3 µM (active)

FC(F)(F)c1ccccc1-c1cc(NCc2cccs2)ncn1
AC50 [2]: 25.1 µM (inconclusive)

Cc1cccc(CNc2cc(-c3cccc(C#N)c3)ncn2)c1
AC50 [2]: 25.1 µM (inconclusive)

COc1ccc(-c2cnc(SCC(=O)Nc3nc(C(C)(C)C)cs3)n2Cc2ccco2)cc1
CC50 [6]: 9.59 µM (active)

CC(=O)c1cccc(NC(=S)NC(=O)Cc2ccc(Cl)cc2)c1
EC50 [11]: > 53 µM (inactive)

CCOC(=O)c1c(NC(=O)/C=C\C(=O)O)sc(C)c1-c1ccccc1
CC50 [6]: 19.4 µM (active)

CCOc1ccc(CCNC(=O)C2CC(=O)N(C3CCCC3)C2)cc1OCC (stereo not given)
AC50 [12]: 0.0631 µM (inconclusive)
AC50 [2]: 0.0282 µM (inconclusive)

O=C(Cn1nc(C(F)F)cc1C(F)F)N/N=C/c1ccc2c(c1)OCO2
AC50 [2]: 2.82 µM (inconclusive)

COc1ccc(C2CC(c3ccc(Br)cc3)=NN2C(=O)CSC2=NCCS2)cc1 (stereo not given)
CC50 [6]: 24.1 µM (active)

CC(=O)c1ccc(NC(=S)NC(=O)Cc2ccc(Cl)cc2)cc1
EC50 [11]: 13.2 µM (active)

CN(C)/C=C1\SC(=S)N(c2ccc(Br)cc2)C1=O
EC50 [3]: 52.3 µM (active)
EC50 [4]: 7.37 µM (active)
EC50 [5]: 17.2 µM (active)
